The text below walks through data of patent publication US9358272B2, “Multicomponent compositions and their uses” (THE ADMINISTRATORS OF THE TULANE EDUCATIONAL FUND, priority 2011, dated 2016).

Where a SMILES comes first, the peptide text is derived from it. [ ]: non-standard residue; d: D form. The star is where a group is joined. Nle = CCCC[C@H](N)C(=O)O; Cbz = O=C(OCc1ccccc1)*

Test [1] relates to ovarian cancer OVCAR8 cells. The test can be described thus: Cell proliferation assay (MTT), OVCAR8 cells. The test is classed as cell-based, Human. Particulars: single agents and combinations. As for the experimental part:
(§1) Cell Proliferation Assay (MTT)
(§2) The cell proliferation assay was performed as described previously in Sun et al., Bioorg Med Chem Lett, 2004, Vol. 14, pp. 2041-2046. Briefly, 50 μl aliquots of medium with different concentrations of compounds were added to 96-well plates. All compound concentrations were tested in triplicate. Another 50 μl of the cell stock (1×10^5 cells/ml of media) was dispensed into each test well and the plates were incubated at 37° C. in a CO2 incubator for 3 days. Following the incubation period, 15 μl of the dye solution was added to each well and the plates were then incubated at 37° C. for 4 hours, followed by the addition of 100 μl per well of the solubilization solution. The plates were incubated at 37° C. until the contents in each well became a uniform-colored solution. The absorbance was measured and recorded at 570 nm by a Victor Plate Reader.
(§3) The cell proliferation assay (Promega, Madison, Wis.) was performed as described in Sun et al., Bioorg Med Chem Lett, 2004, Vol. 14, pp. 2041-2046. The absorbance was measured and recorded at 570 nm by a Victor Plate Reader (PerkinElmer, Boston, Mass.).

Test [2] has as its system pancreatic cancer CFPAC-1 cells. The test can be described thus: Cell proliferation assay (MTT), CFPAC-1 cells. It is filed as cell-based, Human. Particulars: single agents and combinations. The method, then:
as §1, §2, §3

The test system of test [3] is colonrectal cancer HT-29 cells. The test can be described thus: Cell proliferation assay (MTT), HT-29 cells. The test is classed as cell-based, Human. Conditions: single agents and combinations. As for the experimental part:
as §1, §2, §3

Test [4] deals with cervical cancer Hela cells. The test can be described thus: Cell proliferation assay (MTT), cervical cancer Hela cells. It is filed as cell-based, Human. Particulars: single agents and combinations, VPA 2.5 mM in FIGS. 19, 22.
The subject of test [5] is small cell lung cancer DMS-53 cells. The test can be described thus: Cell proliferation assay (MTT), DMS-53 cells. Conditions: single agents and combinations, 2.5 mM VPA or 10 uM SBHA in FIGS. 21, 24. It is filed as cell-based.
In test [6] the test system is pancreatic carcinoid BON cells. The test can be described thus: Cell proliferation assay (MTT), BON cells. It is filed as cell-based, Human. Particulars: single agents and combinations, 2.5 mM VPA or 10 uM SBHA in FIGS. 20, 23.
The test system of a further test is Hela-ICN1 cells. The test can be described thus: Cell proliferation assay (MTT), Notch1-activated Hela-ICN1 cells. The test is classed as cell-based, Human. As for the experimental part: as §1
(§4) The cell proliferation assay (Promega, Madison, Wis.) was performed as described previously in Sun et al., Bioorg Med Chem Lett, 2004, Vol. 14, pp. 2041-2046. Briefly, fifty μl of medium with or without tested compounds was added to 96-well plates. Another 50 μl of tested cancer cells (1×10^5 cells/ml) suspended in culture medium was dispensed into each well. The plates were incubated at 37° C. for 3 days. Afterward, plates were added with a 15 μl dye solution per well and incubated at 37° C. for 4 hours. To each well was then added 100 μl of the solubilization solution and the plates were incubated at 37° C. again until the contents in each well became a uniformly colored solution. The plates were measured at 570 nm by a Victor Reader (PerkinElmer).

Another test concerns Hela-GFP cells. The test can be described thus: Cell proliferation assay (MTT), Hela-GFP cells. The test is classed as cell-based, Human. The method, then:
as §1, §4

Test [7] concerns cAMP production in Hela-ICN1 cells. The test can be described thus: Fluorescence polarization (FP) cAMP assay, Hela-ICN1 cells. Particulars: for cAMP production: Hela cells with activated Notch1 signaling (Hela-ICN1). It is filed as cell-based, Human. The method, then: (§5) Fluorescence Polarization (FP) cAMP Assay The FP cAMP assay (FPA202) was performed according to the manufacturer's protocol (PerkinElmer, Boston, Mass. 02118-2512). Briefly, ten μl of forskolin at different concentrations were added to each well, then to each well ten μl of cell suspended in Stimulation Mix (made fresh before use by mixing anti-cAMP antibody in stimulation buffer) was added. Plates were incubated 30 minutes at 37° C. Twenty μl of Detection Mix (Fluo-cAMP stock diluted in Detection Buffer) was added and continued incubation 30 minutes at 37° C. Meanwhile, the standard curve, and controls were done. The cAMP was measured by Victor Reader (PerkinElmer).
Background: Polarisation of emitted light reports the rotation of a fluorescent probe.

For test [8], the system named is cAMP production in Hela-GFP cells. The test can be described thus: Fluorescence polarization (FP) cAMP assay, Hela-GFP cells. It is filed as cell-based, Human. Conditions: control Hela (Hela-GFP) cells. As for the experimental part: as §5

For the compound `CCCC[C@@H](C=O)NC(=O)[C@H](CC(C)C)NC(=O)[C@H](CC(C)C)NC(=O)OCc1ccccc1` [NLE, Z-Leu-Leu-Nle-CHO] (Cbz-Leu-Leu-[Nle]-aldehyde), the “cell growth suppression (MTT), in words” value in test [1], in test [2] and in test [3] was “induced cell growth arrest” throughout.
As for `O=C(CCCCCCC(=O)NO)NO` [SBHA, suberoyl bis-hydroxamic acid], the “cell growth suppression (MTT), in words” value was “suppressed” in test [4], “induced growth suppression” in [5] and “induced growth suppression” in [6].
With `C[C@H](N)C(=O)NCC(=O)N[C@H]1CSSC[C@@H](C(=O)O)NC(=O)[C@H](CO)NC(=O)[C@H]([C@@H](C)O)NC(=O)[C@H](Cc2ccccc2)NC(=O)[C@H]([C@@H](C)O)NC(=O)[C@H](CCCCN)NC(=O)[C@H](Cc2c[nH]c3ccccc23)NC(=O)[C@H](Cc2ccccc2)NC(=O)[C@H](Cc2ccccc2)NC(=O)[C@H](CC(N)=O)NC(=O)[C@H](CCCCN)NC1=O` [SST-14, Ala-Gly-Cys-Lys-Asn-Phe-Phe-Trp-Lys-Thr-Phe-Thr-Ser-Cys], the “inhibition of cell growth (MTT)” value in the test on Hela-ICN1 cells (compound at 1 μM) is recorded as 2%; with Hela-ICN1 cells (compound at 10 μM) it was 8%. Also, the figures for the “inhibitory rate of cell proliferation (MTT)” value in the test on Hela-GFP cells (compound at 1 μM), in the test on Hela-GFP cells (compound at 10 μM) and in the test on Hela-GFP cells (compound at 20 μM) were “almost no effect”, 28% and “about 40%”, respectively.
On to `C=C[C@@]1(C)CC(=O)[C@]2(O)[C@@]3(C)[C@@H](O)CCC(C)(C)[C@@H]3[C@H](O)[C@H](OC(C)=O)[C@@]2(C)O1` [forskolin], for which the cAMP production in test [7] (forskolin at 1 μM) worked out at 0.05 pMol cAMP per 10^3 cells; in test [7] (forskolin at 10 μM), 0.25 pMol cAMP per 10^3 cells; in test [7] (forskolin at 50 μM), 0.46 pMol cAMP per 10^3 cells; in test [8] (forskolin at 1 μM) it was 0.005 pMol cAMP per 10^3 cells; in test [8] (forskolin at 10 μM), 0.018 pMol cAMP per 10^3 cells; in test [8] (forskolin at 50 μM), 0.024 pMol cAMP per 10^3 cells. Also, the “cAMP concentration in Hela-ICN1 cells relative to Hela-GFP cells” value in test [7] (forskolin at 1 μM) is on record as 10 fold; in test [7] (forskolin at 10 μM), 14 fold; in test [7] (forskolin at 50 μM), 19 fold.
